Experimental data as given in US20070122483A1, “Fluocinolone acetonide drug substance polymorphic interconversion” (priority 2005, published 2007).

Columns and labels:
[1] = background statement; cited from earlier work
[2] = Polymorphic changes of FA after exposure to water (slurry), followed by 13C CP/MAS NMR; format: physicochemical; settings: slurry 0.5 g FA in 10 ml water, stirred at room temperature for seven days, filtered and dried
Method: Slurries containing 0.5 g FA in 10 ml of water were covered and stirred at room temperature for seven days. To remove the water, the samples were filtered and dried overnight at room temperature.
Approximately 80-100 mg of sample was packed inside a 7 mm rotor. Magic-angle spinning (MAS) NMR spectra of fluocinolone acetonide (FA) were acquired using a Varian Unity Inova 400 operating at 399.8 and 100.5 MHz for ^1H and ^13C respectively. The spectra were acquired using cross-polarization (CP) with total sideband suppression and a spinning speed of 4 kHz. Additional acquisition and processing parameters are noted below:
All spectra were externally referenced to hexamethylbenzene (HMB) (^13C, aliphatic peak at 17.4 ppm).

CC1(C)O[C@@H]2C[C@H]3[C@@H]4C[C@H](F)C5=CC(=O)C=C[C@]5(C)[C@@]4(F)[C@@H](O)C[C@]3(C)[C@]2(C(=O)CO)O1 [Fluocinolone acetonide]
solubility in water [1]: practically insoluble | polymorphic changes after exposure to water for an extended time period [2]: all polymorphic forms interconvert to the same form
